pEC50: −log10 of the molar value.
System: HBV
Assay: Anti-HBV activity in vitro: extracellular HBV DNA quantified by direct qPCR in HepAD38 cells
Format: cell-based
Conditions: Hepatitis B virus, doxycycline-free medium, 96 hours at 37°C, reported as EC50 threshold value, read-out: HBV inh EC50
Excerpt: HepAD38 cell line (Ladner et al., Antimicrob Agents Chemother, 1997, 41, 1715-20) was used for HBV inhibition assays. HepAD38 is a subclone, derived from Hepatoblastoma cell line HepG2 (ATCC® Number: HB-8065™), that expresses HBV genome under the transcriptional control of a tetracycline-responsive promoter in a TET-OFF system: addition of tetracycline (TET) or doxycycline suppresses HBV replication, while its removal switches on the process allowing HBV viral particles release in the cell supernatant. HepAD38 cell line is maintained in DMEM/F12, supplemented with 10% of fetal bovine serum, 1% of glutamine, 1% of penicillin/streptomycin, 0.4 mg/ml G418 and 0,3 ug/ml tetracycline. For the HBV inhibition assay, doxycycline-free medium is used in order to allow virion production.
HBV inhibition activity in vitro was performed in 96 multiwell plates. During the initial (primary) screening, compounds were first tested in triplicates at concentrations of 0.02 µM, 0.1µM, 0.5µM and 1µM. For selected compounds, an 8-point dose-response curve was obtained using 1:2 serial dilutions (starting from 0.01µM, 0.1µM, 0.4µM or 5 µM, depending on the degree of inhibition observed during the primary screening). From the dose-response curves, half maximal effective concentration (EC50) could be calculated (see also below).
In more detail, compounds - typically dissolved in DMSO stock solutions - were diluted to 2x the final desired concentration in 100 µl of the above medium (without doxycycline) and plated in three replicates in the 96-well plates. […]
Plates were then incubated 96 hours at 37°C and then subjected to cell viability assays and extracellular HBV quantification, in order to evaluate both the cytotoxic potential and the antiviral activity of compounds. Cytotoxicity was assessed by a commercial fluorescence assay that measures the metabolic activity of cells, directly related to cell viability (Cell Titer Blue, Promega). Anti-HBV activity was evaluated by quantification of extracellular HBV DNA with direct qPCR. […]

SMILES | pEC50
Cc1nnc(C(=O)N2CCC3(COc4c(cn(C)c4C(=O)Nc4ccc(F)c(F)c4)S(=O)(=O)N3)C2)o1 (stereo not drawn) [Example E2, N-(3,4-difluorophenyl)-7'-methyl-1-(5-methyl-1,3,4-oxadiazole-2-carbonyl)-2'H,4'H,7'H-spiro[pyrrolidine-3,3'-pyrrolo[3,4-b][1,4,5]oxathiazepine]-6'-carboxamide 1',1'-dioxide] | > 6.30
C[C@H](NC(=O)C(=O)N1CCC2(COc3c(c(Cl)n(C)c3C(=O)Nc3ccc(F)c(F)c3)S(=O)(=O)N2)C1)C(F)(F)F (stereo in doubt) [Example E3, 8'-chloro-N-(3,4-difluorophenyl)-7'-methyl-1-(2-oxo-2-(((S)-1,1,1-trifluoropropan-2-yl)amino)acetyl)-2'H,4'H,7'H-spiro[pyrrolidine-3,3'-pyrrolo[3,4-b][1,4,5]oxathiazepine]-6'-carboxamide 1',1'-dioxide] | > 6.30
C[C@H](NC(=O)C(=O)N1CCC2(COc3c(cn(C)c3C(=O)Nc3ccc(F)c(F)c3)S(=O)(=O)N2)C1)C(F)(F)F (stereo in doubt) [Example E1, N-(3,4-difluorophenyl)-7'-methyl-1-(2-oxo-2-(((S)-1,1,1-trifluoropropan-2-yl)amino)acetyl)-2'H,4'H,7'H-spiro[pyrrolidine-3,3'-pyrrolo[3,4-b][1,4,5]oxathiazepine]-6'-carboxamide 1',1'-dioxide] | > 6.30

From patent publication EP3865489A1, “SPIROCYCLIC INHIBITORS OF HEPATITIS B VIRUS” (priority 2020, dated 2021)
